These results are taken from article PMC6254361, “The properties of Msh2–Msh6 ATP binding mutants suggest a signal amplification mechanism in DNA mismatch repair” (The Journal of Biological Chemistry, 2018).

The test addresses T1, Msh2–Msh6 (Saccharomyces cerevisiae, UniProt P25847+Q03834, P25847:K694M).
T1 sequence (P25847 1-964 K694M): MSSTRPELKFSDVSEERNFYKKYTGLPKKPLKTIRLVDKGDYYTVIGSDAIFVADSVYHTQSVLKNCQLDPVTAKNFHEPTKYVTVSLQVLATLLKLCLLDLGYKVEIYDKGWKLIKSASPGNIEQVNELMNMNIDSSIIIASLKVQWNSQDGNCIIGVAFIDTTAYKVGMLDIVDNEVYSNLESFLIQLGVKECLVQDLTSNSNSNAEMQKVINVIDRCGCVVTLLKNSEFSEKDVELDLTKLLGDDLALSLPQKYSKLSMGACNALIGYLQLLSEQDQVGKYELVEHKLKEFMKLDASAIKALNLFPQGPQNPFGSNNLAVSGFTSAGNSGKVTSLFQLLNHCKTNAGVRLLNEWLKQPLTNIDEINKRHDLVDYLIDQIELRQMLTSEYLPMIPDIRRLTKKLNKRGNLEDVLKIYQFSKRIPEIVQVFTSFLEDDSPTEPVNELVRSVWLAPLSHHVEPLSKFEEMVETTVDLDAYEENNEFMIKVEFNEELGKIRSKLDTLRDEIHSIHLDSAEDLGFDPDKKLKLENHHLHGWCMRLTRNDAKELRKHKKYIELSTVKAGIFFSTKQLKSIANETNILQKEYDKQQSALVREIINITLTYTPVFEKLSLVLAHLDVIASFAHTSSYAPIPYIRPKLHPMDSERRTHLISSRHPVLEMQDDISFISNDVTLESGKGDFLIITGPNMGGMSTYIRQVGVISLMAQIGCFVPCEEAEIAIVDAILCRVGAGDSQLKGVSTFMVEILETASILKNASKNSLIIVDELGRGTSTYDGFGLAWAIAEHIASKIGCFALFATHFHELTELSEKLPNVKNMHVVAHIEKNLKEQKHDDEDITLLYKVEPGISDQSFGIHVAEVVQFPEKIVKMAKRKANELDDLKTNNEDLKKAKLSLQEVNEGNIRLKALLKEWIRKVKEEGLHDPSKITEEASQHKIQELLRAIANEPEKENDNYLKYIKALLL
T1 sequence (Q03834 1-1242): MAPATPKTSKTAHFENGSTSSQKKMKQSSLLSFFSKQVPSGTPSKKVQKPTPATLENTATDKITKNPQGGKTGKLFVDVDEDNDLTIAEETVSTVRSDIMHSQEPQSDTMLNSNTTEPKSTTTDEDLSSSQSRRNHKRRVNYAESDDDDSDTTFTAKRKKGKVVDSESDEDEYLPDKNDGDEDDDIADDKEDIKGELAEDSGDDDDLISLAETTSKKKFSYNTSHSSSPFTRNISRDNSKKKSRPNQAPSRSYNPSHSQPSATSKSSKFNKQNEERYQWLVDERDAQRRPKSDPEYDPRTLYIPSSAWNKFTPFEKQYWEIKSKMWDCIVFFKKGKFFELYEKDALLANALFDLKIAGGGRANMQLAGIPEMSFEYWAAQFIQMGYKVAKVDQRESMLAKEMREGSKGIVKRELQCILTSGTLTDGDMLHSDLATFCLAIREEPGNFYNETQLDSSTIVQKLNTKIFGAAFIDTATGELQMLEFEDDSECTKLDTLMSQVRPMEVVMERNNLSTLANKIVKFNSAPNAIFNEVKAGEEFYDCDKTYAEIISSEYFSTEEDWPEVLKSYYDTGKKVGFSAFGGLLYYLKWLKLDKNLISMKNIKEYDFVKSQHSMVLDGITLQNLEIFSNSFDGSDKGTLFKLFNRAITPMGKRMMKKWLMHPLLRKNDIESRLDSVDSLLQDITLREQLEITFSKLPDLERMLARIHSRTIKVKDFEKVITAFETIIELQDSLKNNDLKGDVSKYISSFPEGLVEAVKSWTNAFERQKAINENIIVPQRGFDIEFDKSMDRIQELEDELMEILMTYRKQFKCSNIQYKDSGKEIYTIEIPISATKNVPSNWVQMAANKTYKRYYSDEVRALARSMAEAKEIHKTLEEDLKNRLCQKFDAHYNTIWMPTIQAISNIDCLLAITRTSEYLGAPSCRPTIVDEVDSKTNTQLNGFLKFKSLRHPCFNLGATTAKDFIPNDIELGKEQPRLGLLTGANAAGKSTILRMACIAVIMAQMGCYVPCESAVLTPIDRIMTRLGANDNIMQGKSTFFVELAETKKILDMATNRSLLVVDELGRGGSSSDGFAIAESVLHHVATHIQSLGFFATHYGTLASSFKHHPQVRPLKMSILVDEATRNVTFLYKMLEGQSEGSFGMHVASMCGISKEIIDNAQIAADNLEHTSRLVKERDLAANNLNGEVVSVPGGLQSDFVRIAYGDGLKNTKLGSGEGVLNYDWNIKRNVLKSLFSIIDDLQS
As to the kind of experiment: UV cross-linking of [γ-32P]ATP, SDS-PAGE, phosphorimaging. The format is binding. As to conditions: labelled compound; no Mg2+, EDTA, pH 8, on ice; Msh2 site at 60 μM ATP, Msh6 site at 1 μM ATP.

Turning to `Nc1ncnc2c1ncn2[C@@H]1O[C@H](COP(=O)(O)OP(=O)(O)OP(=O)(O)O)[C@@H](O)[C@H]1O` [ATP], the “relative ATP binding” value is given as “Msh2(K694M)–Msh6 mutant complex was only defective for binding ATP to the Msh2 subunit”.
